Reference: patent publication US11051515B2, “3-acyl-benzamides and their use as herbicides” (Bayer Aktiengesellschaft, priority 2017, dated 2021)

Legend:
[1] = test system: STEME; assay: Post-emergence action against STEME; assay type: in vivo, Stellaria media; details: post-emergence, dosage 80 g/ha
Summary of the method: (§1)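 Weeds grown in sandy loam in greenhouse, treated at one-leaf stage (2–3 weeks after sowing) with WP or EC formulations sprayed as aqueous suspension/emulsion at 600 to […] water with 0.2% wetting agent. Visual rating after about 3 weeks versus untreated controls, as % herbicidal action (100% = plants dead, 0% = like control).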

[2] = test system: MATIN; assay: Post-emergence action against MATIN; assay type: in vivo, Matricaria inodora; details: post-emergence, dosage 80 g/ha, visual assessment about 3 weeks after treatment vs untreated controls
Summary of the method: as §1

[3] = test system: ABUTH; assay: Post-emergence action against ABUTH; assay type: in vivo, Abutilon theophrasti; details: post-emergence, dosage 80 g/ha, visual assessment about 3 weeks after treatment vs untreated controls
Summary of the method: as §1

[4] = test system: VERPE; assay: Post-emergence action against VERPE; assay type: in vivo, Veronica persica; details: dosage 80 g/ha
Summary of the method: as §1

[5] = test system: HORMU; assay: Pre-emergence action against HORMU; assay type: in vivo, Hordeum murinum; details: Dosage 320 g/ha
Summary of the method: (§2)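 Seeds sown in sandy loam in wood-fiber pots and covered with soil. Greenhouse growth; visual damage scored after 3 weeks versus untreated controls (100% = dead, 0% = like control).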

[6] = test system: PHBPU; assay: Pre-emergence action against PHBPU; assay type: in vivo, Pharbitis purpurea; details: Dosage 320 g/ha, pre-emergence
Summary of the method: as §2

[7] = test system: ABUTH; assay: Pre-emergence action against ABUTH; assay type: in vivo, Abutilon theophrasti; details: pre-emergence, dosage 320 g/ha, scored visually after 3 weeks vs untreated controls
Summary of the method: as §2

[8] = test system: STEME; assay: Pre-emergence action against STEME; assay type: in vivo, Stellaria media; details: Dosage 320 g/ha, pre-emergence
Summary of the method: as §2

[9] = test system: MATIN; assay: Pre-emergence action against MATIN; assay type: in vivo, Matricaria inodora; details: Dosage 320 g/ha, pre-emergence
Summary of the method: as §2

[10] = test system: PHBPU; assay: Post-emergence action against PHBPU; assay type: in vivo, Pharbitis purpurea; details: post-emergence, dosage 80 g/ha
Summary of the method: as §1

[11] = test system: ECHCG; assay: Post-emergence action against ECHCG; assay type: in vivo, Echinochloa crus-galli; details: post-emergence, dosage 80 g/ha, visual assessment about 3 weeks after treatment vs untreated controls
Summary of the method: as §1

[12] = test system: LOLRI; assay: Pre-emergence action against LOLRI; assay type: in vivo, Lolium rigidum; details: dosage 320 g/ha, scored visually after 3 weeks vs untreated controls
Summary of the method: as §2

[13] = test system: SETVI; assay: Post-emergence action against SETVI; assay type: in vivo, Setaria viridis; details: post-emergence, dosage 80 g/ha, visual assessment about 3 weeks after treatment vs untreated controls
Summary of the method: as §1

[14] = test system: ECHCG; assay: Pre-emergence action against ECHCG; assay type: in vivo, Echinochloa crus-galli; details: pre-emergence, dosage 320 g/ha, scored visually after 3 weeks vs untreated controls
Summary of the method: as §2

[15] = test system: POLCO; assay: Post-emergence action against POLCO; assay type: in vivo, Polygonum convolvulus; details: post-emergence, dosage 80 g/ha
Summary of the method: as §1

[16] = test system: ALOMY; assay: Post-emergence action against ALOMY; assay type: in vivo, Alopecurus myosuroides; details: Dosage 80 g/ha, post-emergence
Summary of the method: as §1

[17] = test system: VERPE; assay: Pre-emergence action against VERPE; assay type: in vivo, Veronica persica; details: Dosage 320 g/ha, pre-emergence
Summary of the method: as §2

[18] = test system: AVEFA; assay: Pre-emergence action against AVEFA; assay type: in vivo, Avena fatua; details: dosage 320 g/ha, scored visually after 3 weeks vs untreated controls
Summary of the method: as §2

[19] = test system: VIOTR; assay: Pre-emergence action against VIOTR; assay type: in vivo, Viola tricolor; details: Dosage 320 g/ha, pre-emergence
Summary of the method: as §2

[20] = test system: POLCO; assay: Pre-emergence action against POLCO; assay type: in vivo, Polygonum convolvulus; details: Dosage 320 g/ha, pre-emergence
Summary of the method: as §2

[21] = test system: ALOMY; assay: Pre-emergence action against ALOMY; assay type: in vivo, Alopecurus myosuroides; details: dosage 320 g/ha; pre-emergence; scored visually after 3 weeks vs untreated controls; 100% = plants have died, 0% = like control plants
Summary of the method: as §2

[22] = test system: AVEFA; assay: Post-emergence action against AVEFA; assay type: in vivo, Avena fatua; details: post-emergence, dosage 80 g/ha, visual assessment about 3 weeks after treatment vs untreated controls
Summary of the method: as §1

[23] = test system: CYPES; assay: Post-emergence action against CYPES; assay type: in vivo, Cyperus esculentus; details: post-emergence, dosage 80 g/ha, visual assessment about 3 weeks after treatment vs untreated controls
Summary of the method: as §1

[24] = test system: VIOTR; assay: Post-emergence action against VIOTR; assay type: in vivo, Viola tricolor; details: post-emergence, dosage 80 g/ha
Summary of the method: as §1

[25] = test system: AMARE; assay: Post-emergence action against AMARE; assay type: in vivo, Amaranthus retroflexus; details: post-emergence, dosage 80 g/ha, visual assessment about 3 weeks after treatment vs untreated controls
Summary of the method: as §1

[26] = test system: AMARE; assay: Pre-emergence action against AMARE; assay type: in vivo, Amaranthus retroflexus; details: pre-emergence, dosage 320 g/ha, scored visually after 3 weeks vs untreated controls
Summary of the method: as §2

[27] = test system: LOLRI; assay: Post-emergence action against LOLRI; assay type: in vivo, Lolium rigidum; details: dosage 80 g/ha, visual assessment about 3 weeks after treatment vs untreated controls
Experimental: Seeds of monocotyledonous and dicotyledonous weed and crop plants are laid out in sandy loam soil in wood-fiber pots, covered with soil and cultivated in a greenhouse under good growth conditions. 2 to 3 weeks after sowing, the test plants are treated at the one-leaf stage. The compounds of the invention, formulated in the form of wettable powders (WP) or as emulsion concentrates (EC), are then sprayed onto the green parts of the plants in the form of an aqueous suspension or emulsion at a water application rate equating to […], with addition of 0.2% wetting agent. After the test plants have been left to stand in the greenhouse under optimal growth conditions for about 3 weeks, the action of the preparations is assessed visually in comparison to untreated controls (herbicidal action in percent (%): 100% activity=the plants have died, 0% activity=like control plants). […] At the same time, inventive compounds leave Gramineae crops such as barley, wheat, rye, millet/Sorghum, corn or rice virtually undamaged when applied post-emergence, even at high active ingredient dosages. In addition, some substances are also harmless to dicotyledonous crops such as soya, cotton, oilseed rape, sugar beet or potatoes. Some of the compounds according to the invention have high selectivity and are therefore suitable for controlling unwanted vegetation in agricultural crops by the post-emergence method. The data of Tables B18 to B34 below illustrate, in an exemplary manner, the […] herbicidal action of the compounds according to the invention, the herbicidal activity being stated in percent.

[28] = test system: SETVI; assay: Pre-emergence action against SETVI; assay type: in vivo, Setaria viridis; details: pre-emergence, dosage 320 g/ha, scored visually after 3 weeks vs untreated controls
Summary of the method: as §2

[29] = test system: CYPES; assay: Pre-emergence action against CYPES; assay type: in vivo, Cyperus esculentus; details: pre-emergence, dosage 320 g/ha, scored visually after 3 weeks vs untreated controls
Summary of the method: as §2

SMILES	Post-emergence action against STEME [1]	Post-emergence action against ABUTH (herbicidal action in percent) [3]	Post-emergence action against VERPE [4]	Pre-emergence action against PHBPU [6]	Pre-emergence action against ABUTH (herbicidal activity) [7]	Pre-emergence action against STEME [8]	Pre-emergence action against MATIN [9]	Post-emergence action against PHBPU [10]	Post-emergence action against ECHCG (herbicidal action in percent) [11]	Pre-emergence action against LOLRI (herbicidal activity) [12]	Post-emergence action against SETVI (herbicidal action in percent) [13]	Pre-emergence action against ECHCG (herbicidal activity) [14]	Post-emergence action against ALOMY [16]	Pre-emergence action against VERPE [17]	Pre-emergence action against AVEFA (herbicidal activity) [18]	Pre-emergence action against VIOTR [19]	Pre-emergence action against POLCO [20]	Pre-emergence action against ALOMY (herbicidal activity in percent) [21]	Post-emergence action against VIOTR [24]	Post-emergence action against AMARE (herbicidal action in percent) [25]	other results
CCn1nnnc1NC(=O)c1ccc(C(F)F)c(C(=O)C2CC2)c1Cl [2-168]	100	100%	80	80%	100%	100%	100%	100	100%	100%	100%	100%	100%	100%	90%	100%	90%	100%	100	100%	Post-emergence action against MATIN (herbicidal action in percent) [2]: 100%; Pre-emergence action against HORMU [5]: 90%; Post-emergence action against POLCO [15]: 100; Post-emergence action against AVEFA (herbicidal action in percent) [22]: 100%; Post-emergence action against CYPES (herbicidal action in percent) [23]: 100%; Pre-emergence action against AMARE (herbicidal activity) [26]: 100%; Post-emergence action against LOLRI (herbicidal action in percent) [27]: 100%; SETVI (Table B8, pre-emergence herbicidal activity) [28]: 100%
COCC(=O)c1c(C(F)(F)F)ccc(C(=O)Nc2nnnn2C)c1Cl [1-144]	100	100%	90	100%	100%	100%	100%	100	90%	100%	100%	100%	90%	100%	100%	100%	80%	100%	100	100%	Post-emergence action against MATIN (herbicidal action in percent) [2]: 90%; Pre-emergence action against AMARE (herbicidal activity) [26]: 100%; Post-emergence action against LOLRI (herbicidal action in percent) [27]: 80%; Pre-emergence action against CYPES (herbicidal activity) [29]: 100%; SETVI (Table B8, pre-emergence herbicidal activity) [28]: 100%
CCn1nnnc1NC(=O)c1ccc(C(F)(F)F)c(C(=O)C2CC2C)c1Cl (stereo not drawn) [2-148]	90	90%	90	90%	100%	90%	100%	90	90%	90%	90%	100%	90%	100%	90%	100%	90%	90%	90	90%	Post-emergence action against MATIN (herbicidal action in percent) [2]: 90%; Pre-emergence action against AMARE (herbicidal activity) [26]: 100%; Post-emergence action against LOLRI (herbicidal action in percent) [27]: 80%; Pre-emergence action against CYPES (herbicidal activity) [29]: 90%; SETVI (Table B8, pre-emergence herbicidal activity) [28]: 100%
Cn1nnnc1NC(=O)c1ccc(C(F)(F)F)c(C(=O)CCl)c1Cl [1-145]	100	100%	100	100%	100%	100%	100%	100	100%	100%	100%	100%	90%	100%	100%	100%	100%	100%	100	100%	Post-emergence action against AVEFA (herbicidal action in percent) [22]: 90%; Post-emergence action against CYPES (herbicidal action in percent) [23]: 100%; Pre-emergence action against AMARE (herbicidal activity) [26]: 100%; Post-emergence action against LOLRI (herbicidal action in percent) [27]: 80%; Pre-emergence action against CYPES (herbicidal activity) [29]: 100%; SETVI (Table B8, pre-emergence herbicidal activity) [28]: 100%
CC1CC1C(=O)c1c(C(F)(F)F)ccc(C(=O)Nc2nnnn2C)c1Cl (stereo not drawn) [1-148]	100	100%	100	100%	100%	100%	100%	100	100%	100%	100%	100%	80%	100%	90%	100%	90%	100%	90	100%	Post-emergence action against MATIN (herbicidal action in percent) [2]: 100%; Pre-emergence action against HORMU [5]: 80%; Post-emergence action against POLCO [15]: 80; Post-emergence action against CYPES (herbicidal action in percent) [23]: 90%; Pre-emergence action against AMARE (herbicidal activity) [26]: 100%; Post-emergence action against LOLRI (herbicidal action in percent) [27]: 80%; Pre-emergence action against CYPES (herbicidal activity) [29]: 90%; SETVI (Table B8, pre-emergence herbicidal activity) [28]: 100%
